Source: patent US6911432B2, “Drugs, foods or drinks with the use of algae-derived physiologically active substances” (priority 1997, dated 2005)

Columns and labels:
[1] = test system: iNOS; assay: iNOS expression by western blotting and RT-PCR; type: cell-based; conditions: protein level by western blotting, messenger RNA level by RT-PCR
Description: The confirmation was carried out at protein level by western blotting and at messenger RNA level by RT-PCR. That is, the compounds used in the present invention are useful for treating and preventing diseases that require inhibition of NO production by inhibiting expression of iNOS which is overexpressed by various factors to produce excess NO.

[2] = test system: RAW264.7; assay: antiproliferation assay, MTT method; type: cell-based, mouse
Description: (§1) Each fraction was sterilized by filtration and its 10 μl portion was placed in a well of a 96 well microtiter plate. […] The cell morphology was observed under an optical microscope. […] The absorbance at 590 nm was measured to determine a cell proliferation rate. (2) A 50 mM solution of agarobiose, agarotetraose or agarohexaose obtained in Example 3-(1) was sterilized by filtration and diluted 2-, 4-, 8-, 16-, 32-, 64- and 128-folds with sterilized water. […] [table] The number in Table 3 represents the dilution rate of the dilution added to the group whose absorbance at 590 nm was less than one-half of that of the control group to which water was added. […] Then, for agarobiose, agarotetraose and agarohexaose, the concentrations required for 50% proliferation inhibitory rate (IC50) are calculated based on the change in the absorbance at 590 nm, and are shown in Table 4.

[3] = test system: A-172; assay: antiproliferation assay, MTT method; type: cell-based
Description: as §1

[4] = test system: HT-1080; assay: antiproliferation assay, MTT method; type: cell-based
Description: as §1

[5] = test system: MCF7; assay: antiproliferation assay, MTT method; type: cell-based, human
Description: as §1

[6] = test system: MKN45; assay: antiproliferation assay, MTT method; type: cell-based, human
Description: as §1

[7] = test system: RPMI1788; assay: antiproliferation assay, MTT method; type: cell-based, human
Description: as §1

[8] = test system: HepG2; assay: antiproliferation assay, MTT method; type: cell-based, human
Description: as §1

[9] = test system: HCT116; assay: antiproliferation assay, MTT method; type: cell-based, human
Description: as §1

[10] = test system: A549; assay: antiproliferation assay, MTT method; type: cell-based, human
Description: as §1

[11] = test system: WiDr; assay: antiproliferation assay, MTT method; type: cell-based, human
Description: as §1

[12] = test system: T-47D; assay: antiproliferation assay, MTT method; type: cell-based, human
Description: as §1

[13] = test system: HeLa S3; assay: antiproliferation assay, MTT method; type: cell-based, human
Description: as §1

[14] = test system: HT-29; assay: antiproliferation assay, MTT method; type: cell-based, human
Description: as §1

[15] = test system: T24; assay: antiproliferation assay, MTT method; type: cell-based, human
Description: as §1

[16] = test system: HL-60 cells; assay: antiproliferation assay, MTT method, absorbance at 590 nm; type: cell-based, human; conditions: for antiproliferation activity against HL-60 cells (in words): preparations and fractions, compared with control to which water was added
[17] = reaction with L-cysteine or L-lysine in phosphate buffered saline at 37° C., thin layer chromatography; type: physicochemical
Description: (2) Agarobiose and agarohexaose obtained in Example 14-(1) were dissolved in water to prepare 100 mM aqueous solutions thereof. To each 25 μl of these solutions was added 50 μl of 100 mM aqueous L-cysteine solution, followed by addition of 925 μl of phosphate buffered saline. Then, the mixture was treated at 37° C. for 1 hour or 16 hours. The same reaction was repeated except that an aqueous solution containing the same concentration of L-lysine was used instead of the aqueous L-cysteine solution.
1 μl of a sample from each reaction was spotted on a silica gel sheet 60 F254, developed with 1-butanol:ethanol:water=5:5:1 and detected by orcinol-sulfate method.

[18] = test system: HL-60 cells; assay: viable cell count with Trypan Blue under a microscope; type: cell-based, human; conditions: final concentration 250 μM or 125 μM
Description: Agarobiose, agarotetraose, agarohexaose and agarooctaose (hereinafter, sometimes, these oligosuccharaides are referred to as agarooligosaccharides) obtained in Example 5 were dissolved in water at a concentration of 2.5 mM or 1.25 mM separately, and were sterilized by filtration. HL-60 cells were suspended in RPMI 1640 medium containing 10% fetal bovine serum at a concentration of 2.5×10^5 cells/4.5 ml and to this suspension was added 0.5 ml of each of the oligosaccharide solutions. The resultant mixture were incubated with 5% CO2 at 37° C. for 24 hours or 48 hours. A part of the cell culture was taken up, followed by addition of Trypan Blue thereto and observing under a microscope to count the number of viable cells.
That is, FIG. 14 illustrates the relation between the incubation time and the number of viable cells when HL-60 cells were cultured with addition of one of the oligosaccharides at the final concentration of 250 μM. FIG. 15 illustrates the relation between the incubation time and the number of viable cells when HL-60 cells were cultured with addition of one of the oligosaccharides at the final concentration of 125 μM. In FIGS. 14 and 15, the horizontal axes represent the incubation time (hrs.) and the vertical axes represent the number of viable cells (× 10^5/5 ml). The closed circle (●) represents the addition of water (control), the open diamond (⋄) represents the addition of agarobiose, the open circle (◯) represents the addition of agarotetraose, the open triangle (Δ) represents the addition of agarohexaose and the open square (□) represents the addition of agarooctaose.

[19] = dilution rate 1 corresponds to 5 mM in medium
[20] = read-out: IC50 (concentration required for 50% proliferation inhibitory rate)

- IC50 [4, 20]: 317 µM
- IC50 [5, 20]: 274 µM
- IC50 [6, 20]: 344 µM
- IC50 [8, 20]: 652 µM
- IC50 [9, 20]: 244 µM
- IC50 [10, 20]: 570 µM
- IC50 [12, 20]: 210 µM
- IC50 [13, 20]: 353 µM
- IC50 [14, 20]: 622 µM
- IC50 [15, 20]: 352 µM
- IC50 ([16]; HL-60, read-out: IC50 (concentration required for 50% proliferation inhibitory rate)): 170 µM
- spot of the saccharide on thin layer chromatography after reaction ([17]; L-cysteine, 1 hour): disappeared
- spot of the saccharide on thin layer chromatography after reaction ([17]; L-cysteine, 16 hours): disappeared
- spot of the saccharide on thin layer chromatography after reaction ([17]; L-lysine, 16 hours): disappeared
Compound: OC[C@H]1O[C@@H](O[C@H]2[C@H]3OC[C@@H]2OC(O)[C@H]3O)[C@H](O)[C@@H](O)[C@H]1O (mixture of isomers) [Agarobiose, agarobiose]
- inhibition of iNOS expression [1]: inhibit this iNOS expression
- dilution rate of the dilution added to the group whose absorbance at 590 nm was less than one-half of that of the control group [2, 19]: 16
- IC50 [2, 20]: 179 µM
- dilution rate of the dilution added to the group whose absorbance at 590 nm was less than one-half of that of the control group [3, 19]: 16
- IC50 [3, 20]: 289 µM
- dilution rate of the dilution added to the group whose absorbance at 590 nm was less than one-half of that of the control group [4, 19]: 8
- dilution rate of the dilution added to the group whose absorbance at 590 nm was less than one-half of that of the control group [5, 19]: 16
- dilution rate of the dilution added to the group whose absorbance at 590 nm was less than one-half of that of the control group [6, 19]: 8
- dilution rate of the dilution added to the group whose absorbance at 590 nm was less than one-half of that of the control group [7, 19]: 64
- IC50 [7, 20]: 44 µM
- dilution rate of the dilution added to the group whose absorbance at 590 nm was less than one-half of that of the control group [8, 19]: 8
- dilution rate of the dilution added to the group whose absorbance at 590 nm was less than one-half of that of the control group [9, 19]: 16
- dilution rate of the dilution added to the group whose absorbance at 590 nm was less than one-half of that of the control group [10, 19]: 8
- dilution rate of the dilution added to the group whose absorbance at 590 nm was less than one-half of that of the control group [11, 19]: 8
- IC50 [11, 20]: 405 µM
- dilution rate of the dilution added to the group whose absorbance at 590 nm was less than one-half of that of the control group [12, 19]: 16
- dilution rate of the dilution added to the group whose absorbance at 590 nm was less than one-half of that of the control group [13, 19]: 8
- dilution rate of the dilution added to the group whose absorbance at 590 nm was less than one-half of that of the control group [14, 19]: 8
- dilution rate of the dilution added to the group whose absorbance at 590 nm was less than one-half of that of the control group [15, 19]: 8
- dilution rate of the dilution added to the group whose absorbance at 590 nm was less than one-half of that of the control group ([16]; HL-60, 50 mM solution diluted 2- to 128-fold, dilution rate 1 corresponds to 5 mM in the cell culture medium): 32
- antiproliferation activity relative to the same concentration of the unreacted saccharide ([16]; HL-60, after reaction with L-cysteine at 37° C. for 1 hour): 1/10
- antiproliferation activity relative to the same concentration of the unreacted saccharide ([16]; HL-60, after reaction with L-cysteine at 37° C. for 16 hours): 1/10
- antiproliferation activity relative to the same concentration of the unreacted saccharide ([16]; HL-60, after reaction with L-lysine at 37° C. for 16 hours): 1/10
- cell proliferation suppressed as compared with the control group ([16]; HL-60, agarobiose at 78 μg/ml, 48 hours): about 86%
- antiproliferation activity against HL-60 cells (in words) ([16]; listed as group 4): an antiproliferation activity was observed
- antiproliferation activity against HL-60 cells (in words) ([16]; listed as group 5): an antiproliferation activity was observed
- antiproliferation activity against HL-60 cells (in words) ([16]; listed as peak at the elution time 8.87 min.): had both activities
- antiproliferation activity against HL-60 cells (in words) ([16]; listed as peak at the elution time 9.40 min.): had both activities
- apoptosis corpuscles [18]: apoptosis corpuscles were observed
- number of viable cells as compared with the group to which water was added ([18]; 24 hours or 48 hours): decreased
